Tested on: 695427-040-R-J1-PDC complex spheroids, viability percent T/C
Experiment: Anticancer human tumor 695427-040-R-J1-PDC patient-derived colon adenocarcinoma cell line growth inhibition [GQUAD]
Conditions: for IC50: curve of first compound; for viability, T/C: stronger effect = lower value
Text: DNA G-quadruplex Stabilizer Agents in Combinations in Complex Spheroids
A high-throughput screen of multi-cell type tumor spheroids was designed to identify active combinations of DNA G-quadruplex stabilizer agents and targeted small molecules. Complex spheroids include a stromal component modeled by human endothelial cells (HUVEC) and fibroblasts modeled by human mesenchymal stem cells (MSCs). The concentration ranges selected for each drug and investigational agent were based upon clinically achievable concentrations if the clinical Cmax of the agent was known.
Compounds. The drugs and investigational agents: pidnarulex (CX-5461; NSC782164), APTO-253 (NSC789042), BRACO-19 (NSC847499), peposertib (NSC802822), ceralasertib (NSC780249), elimusertib (NSC800525), camonsertib (NSC841442), AZD-1390 (NSC803789), olaparib (NSC753686), talazoparib (NSC767125), ART-558 (NSC835418), sotorasib (NSC818433), MRTX-1133 (NSC836407), SN-38 (NSC673596), topotecan (NSC609699), etoposide (NSC141540), doxorubicin (NSC123127), gemcitabine (NSC613327), 5-fluorouracil (NSC19893), paclitaxel (NSC125973), vemurafenib (NSC761431), panobinostat (NSC761190), R-306465 (JNJ-16241199; NSC773264), adavosertib (NSC754352), TP-3654 (NSC805149), carboplatin (NSC241240), KSQ-4279 (NSC840948), and staurosporine (NSC755774) were obtained from the National Cancer Institute (NCI) Developmental Therapeutics Program Chemical Repository (34). The FDA-approved anticancer drug set is available from the NCI Developmental Therapeutics Program. […] The stock solutions were prepared in dimethyl sulfoxide (DMSO, Sigma-Aldrich, St. Louis, MO, cat. D2650) at 800-fold the tested concentration and stored at -70 degrees C prior to their use. All drugs and investigational agents were tested over a range starting from a high concentration at or near the clinical Cmax and decreasing in half-log increments. If the clinical Cmax for an agent had not been determined, the highest concentration tested was 10 microM.
2.3 Cell Culture. All cells were maintained in an incubator at 37 degrees C and 5% CO2 with 95% humidity. The PDC lines were cultured according to standard operating procedures established by the NCI PDMR. All PDCs were thawed and cultured in Matrigel-coated flasks prepared with a working solution of 1X Ham's F-12 nutrient mix, without supplementation (Invitrogen, cat. 11765054), 100 U/mL penicillin-streptomycin (Invitrogen, cat. 15140122), and 2.5% Matrigel (Corning Inc., cat. 354248) for the first three passages. The 857933-349-R-J2-PDC line was cultured in 6C/Colon 1B media, which includes advanced DMEM/F-12 (Thermo Fisher Scientific, cat. 12634028), 10 mM HEPES (Thermo Fisher Scientific, cat. 15630080), 1X GlutaMAX supplement (Thermo Fisher Scientific, cat. 35050061), 0.1 mg/mL primocin (InvivoGen, cat. ant-pm-2), 10% defined fetal bovine serum, heat inactivated (HyClone Laboratories Inc., cat. SH30070.03HI), 50% L-WRN conditioned media (ATCC, cat. CRL-3276), 1.25 mM N-Acetyl-L-cysteine (Sigma-Aldrich, cat. A9165), 10 mM nicotinamide (Sigma-Aldrich, cat. N0636), 1X B-27 supplement (Thermo Fisher Scientific, cat. 17504044), 1X N-2 supplement (Thermo Fisher Scientific, cat. 17502048), 10 microM Y-27632 dihydrochloride (Tocris Bioscience, cat. 1254), and 50 ng/mL human EGF recombinant protein (Thermo Fisher Scientific, cat. PHG0311). The 485176-168-R4-J1-PDC line was cultured in Panc media, which includes all 6C/Colon 1B media components plus 100 ng/mL human FGF-10 (Thermo Fisher Scientific, cat. 100-26), 500 nM SB-431542 (Selleckchem, cat. S1067), and gastrin (Tocris, cat. 3006).
[…]

[1] = second compound 0.0316 µM, first compound 0.0316 µM
[2] = second compound 0.0316 µM, first compound 0.1 µM
[3] = second compound 0.0316 µM, first compound 0.316 µM
[4] = second compound 0.0316 µM, first compound 1 µM
[5] = second compound 0.0316 µM, first compound 3.16 µM
[6] = second compound 0.0316 µM, first compound 10 µM
[7] = second compound 0.1 µM, first compound 0.0316 µM
[8] = second compound 0.1 µM, first compound 0.1 µM
[9] = second compound 0.1 µM, first compound 0.316 µM
[10] = second compound 0.1 µM, first compound 1 µM
[11] = second compound 0.1 µM, first compound 3.16 µM
[12] = second compound 0.1 µM, first compound 10 µM
[13] = second compound 0.316 µM, first compound 0.0316 µM
[14] = second compound 0.316 µM, first compound 0.1 µM
[15] = second compound 0.316 µM, first compound 0.316 µM
[16] = second compound 0.316 µM, first compound 1 µM
[17] = second compound 0.316 µM, first compound 3.16 µM
[18] = second compound 0.316 µM, first compound 10 µM
[19] = second compound 1 µM, first compound 0.0316 µM
[20] = second compound 1 µM, first compound 0.1 µM
[21] = second compound 1 µM, first compound 0.316 µM
[22] = second compound 1 µM, first compound 1 µM
[23] = second compound 1 µM, first compound 3.16 µM
[24] = second compound 1 µM, first compound 10 µM
[25] = second compound 3.16 µM, first compound 0.0316 µM
[26] = second compound 3.16 µM, first compound 0.1 µM
[27] = second compound 3.16 µM, first compound 0.316 µM
[28] = second compound 3.16 µM, first compound 1 µM
[29] = second compound 3.16 µM, first compound 3.16 µM
[30] = second compound 3.16 µM, first compound 10 µM
[31] = second compound 10 µM, first compound 0.0316 µM
[32] = second compound 10 µM, first compound 0.1 µM
[33] = second compound 10 µM, first compound 0.316 µM
[34] = second compound 10 µM, first compound 1 µM
[35] = second compound 10 µM, first compound 3.16 µM
[36] = second compound 10 µM, first compound 10 µM
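Note: spheroids exposed to compounds for seven days before readout.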

Structure (SMILES): O=C(NO)c1cnc(N2CCN(S(=O)(=O)c3ccc4ccccc4c3)CC2)nc1 + Cc1[nH]c2ccc(F)cc2c1-c1nc2c3cccnc3c3ncccc3c2[nH]1
- IC50 (second compound 0.0316 µM): > 10000 nM
- IC50 (second compound 0.1 µM): > 10000 nM
- IC50 (second compound 0.316 µM): > 10000 nM
- IC50 (second compound 1 µM): > 10000 nM
- IC50 (second compound 3.16 µM): > 10000 nM
- IC50 (second compound 10 µM): > 10000 nM
- viability, T/C [1]: 90.4%
- viability, T/C [2]: 106%
- viability, T/C [3]: 94.3%
- viability, T/C [4]: 87.5%
- viability, T/C [5]: 78.7%
- viability, T/C [6]: 74.7%
- viability, T/C [7]: 98.4%
- viability, T/C [8]: 91.1%
- viability, T/C [9]: 83%
- viability, T/C [10]: 87%
- viability, T/C [11]: 81.3%
- viability, T/C [12]: 68.5%
- viability, T/C [13]: 99.1%
- viability, T/C [14]: 89.4%
- viability, T/C [15]: 81.9%
- viability, T/C [16]: 82.6%
- viability, T/C [17]: 80.5%
- viability, T/C [18]: 65.6%
- viability, T/C [19]: 95%
- viability, T/C [20]: 86%
- viability, T/C [21]: 84.8%
- viability, T/C [22]: 82%
- viability, T/C [23]: 77.9%
- viability, T/C [24]: 61.5%
- viability, T/C [25]: 76.5%
- viability, T/C [26]: 71.2%
- viability, T/C [27]: 71.2%
- viability, T/C [28]: 73.5%
- viability, T/C [29]: 57.3%
- viability, T/C [30]: 54.5%
- viability, T/C [31]: 69.6%
- viability, T/C [32]: 73.1%
- viability, T/C [33]: 73.8%
- viability, T/C [34]: 60.5%
- viability, T/C [35]: 54.3%
- viability, T/C [36]: 50.5%

Structure (SMILES): COc1ccc([C@@H](O)c2cc(-c3ncnc4cc(N5CCOCC5)ccc34)c(F)cc2Cl)nn1 + Cc1cnc(CNC(=O)c2c(=O)c3ccc(N4CCCN(C)CC4)nc3n3c2sc2ccccc23)cn1
- IC50 (second compound 0.0316 µM): 2950 nM
- IC50 (second compound 0.1 µM): 3680 nM
- IC50 (second compound 0.316 µM): 2080 nM
- IC50 (second compound 1 µM): 2330 nM
- IC50 (second compound 3.16 µM): < 31.6 nM
- IC50 (second compound 10 µM): < 31.6 nM
- viability, T/C [1]: 93.2%
- viability, T/C [2]: 101%
- viability, T/C [3]: 85.6%
- viability, T/C [4]: 64.3%
- viability, T/C [5]: 53.1%
- viability, T/C [6]: 31.2%
- viability, T/C [7]: 91.5%
- viability, T/C [8]: 103%
- viability, T/C [9]: 80.5%
- viability, T/C [10]: 66.5%
- viability, T/C [11]: 55.7%
- viability, T/C [12]: 36.3%
- viability, T/C [13]: 72.6%
- viability, T/C [14]: 79.3%
- viability, T/C [15]: 69.8%
- viability, T/C [16]: 56.1%
- viability, T/C [17]: 47.5%
- viability, T/C [18]: 35.2%
- viability, T/C [19]: 58%
- viability, T/C [20]: 69.4%
- viability, T/C [21]: 60.9%
- viability, T/C [22]: 52.2%
- viability, T/C [23]: 49.6%
- viability, T/C [24]: 32%
- viability, T/C [25]: 41.5%
- viability, T/C [26]: 46.3%
- viability, T/C [27]: 42.7%
- viability, T/C [28]: 46%
- viability, T/C [29]: 39.5%
- viability, T/C [30]: 21.9%
- viability, T/C [31]: 36.8%
- viability, T/C [32]: 39.6%
- viability, T/C [33]: 36.3%
- viability, T/C [34]: 33.6%
- viability, T/C [35]: 20.2%
- viability, T/C [36]: 5.79%

Structure (SMILES): COc1cccc2c1C(=O)c1c(O)c3c(c(O)c1C2=O)CC(O)(C(=O)CO)CC3OC1CC(N)C(O)C(C)O1 (stereo unspecified) + Cc1cnc(CNC(=O)c2c(=O)c3ccc(N4CCCN(C)CC4)nc3n3c2sc2ccccc23)cn1
- IC50 (second compound 0.0316 µM): 1510 nM
- IC50 (second compound 0.1 µM): 1990 nM
- IC50 (second compound 0.316 µM): 1920 nM
- IC50 (second compound 1 µM): 557 nM
- IC50 (second compound 3.16 µM): < 31.6 nM
- IC50 (second compound 10 µM): < 31.6 nM
- viability, T/C [1]: 96.5%
- viability, T/C [2]: 68%
- viability, T/C [3]: 70%
- viability, T/C [4]: 56.8%
- viability, T/C [5]: 38.7%
- viability, T/C [6]: 40.4%
- viability, T/C [7]: 86.3%
- viability, T/C [8]: 70.6%
- viability, T/C [9]: 85.3%
- viability, T/C [10]: 62.3%
- viability, T/C [11]: 45%
- viability, T/C [12]: 38.4%
- viability, T/C [13]: 72.2%
- viability, T/C [14]: 69.8%
- viability, T/C [15]: 64.9%
- viability, T/C [16]: 60.4%
- viability, T/C [17]: 42.4%
- viability, T/C [18]: 34.4%
- viability, T/C [19]: 60.2%
- viability, T/C [20]: 56.8%
- viability, T/C [21]: 59.6%
- viability, T/C [22]: 41%
- viability, T/C [23]: 34.2%
- viability, T/C [24]: 24.2%
- viability, T/C [25]: 43.8%
- viability, T/C [26]: 55.6%
- viability, T/C [27]: 48%
- viability, T/C [28]: 28.1%
- viability, T/C [29]: 28.9%
- viability, T/C [30]: 14.9%
- viability, T/C [31]: 32.1%
- viability, T/C [32]: 45%
- viability, T/C [33]: 43.5%
- viability, T/C [34]: 26.4%
- viability, T/C [35]: 20.2%
- viability, T/C [36]: 3.89%

— PubChem BioAssay AID2060492 (Molecular Pharmacology Branch, DTP, NCI, 2025)
